In patent US20240010984A1, “SERUM-FREE MEDIUM FOR DIFFERENTIATION OF A PROGENITOR CELL” (Mosa Meat B.V., priority 2020, published 2024):

Legend:
[1] = system: Bovine muscle progenitor cells; experiment: Serum-free myogenic differentiation of bovine muscle progenitor cells into myocytes (Example 3, FIG. 1 and 2); format: cell-based, Bos taurus; details: cells previously proliferated in serum-free proliferation medium, one inducer per medium (lactate 10 mM, LPA 5 uM, oxytocin 50 nM or glucagon 1 uM), different basal formulations
Description: The DMEM/F12 1:1 or 10:1 or 1:0 or alpha-MEM or M199 medium was supplemented with albumin (recombinant human albumin from Richcore) at 0.5 mg/ml, insulin (recombinant human insulin, 10-365 from Peprotech) at 19.4 ug/ml, transferrin (recombinant human transferrin, 10-366 from Peprotech) at 10.7 ug/ml, sodium selenite (S5261 from SigmaAldrich) at 0.014 ug/ml, Ethanolamine from Sigma Aldrich cat nr E9508 at 4 ug/ml, ascorbic acid (L-ascorbic acid 2-phosphate sesquimagnesium salt hydrate, A8960 from SigmaAldrich) at 115.22 ug/ml, EGF (recombinant human EGF, AF-100-15 from Peprotech) at 10 ng/ml and one of the following inducers: lactate (Sodium L-lactate, 71718 from SigmaAldrich) at 10 mM, LPA (Oleoyl-L-α-lysophosphatidic acid sodium salt, L7260 from SigmaAldrich) at 5 uM, oxytocin (06379 from SigmaAldrich) at 50 nM, or glucagon (G2044 from SigmaAldrich) at 1 uM.
Bovine muscle progenitor cells were isolated from a bovine muscle tissue (Bos taurus) and sorted based on their positive expression of CD29 as previously described (Ding et al., Sci. Rep., 17(8): 10808 (2018)). Muscle progenitor cells were propagated in a serum-free proliferation medium for at least 8 population doublings prior to differentiation. […]

[2] = system: bovine muscle progenitor cells; experiment: Serum-free myogenic differentiation with or without Notch pathway inhibition, brightfield microscopy (Example 5, FIG. 3); format: cell-based
Description: Myogenic progenitor cells as disclosed in Example 2 were plated in Matrigel-coated (1:200 in PBS) plates at a seeding density of 40 k cells/cm^2 and cultured for 24 h in a serum-free proliferation medium as disclosed in Example 2. Myogenic differentiation was induced by adding an exemplary serum-free differentiation medium (Table 3) in the presence and absence of DAPT (gamma-Secretase inhibitor #ab120633, abcam) at 0 μM (absence of DAPT; control medium), 1 μM, 5 μM and 10 μM. Cells were imaged with brightfield microscopy and the differentiation phenotypes were compared.

| Compound | induction of serum-free myogenic differentiation [1] | myogenic differentiation of bovine muscle progenitor cells into myocytes compared to control medium without DAPT ([2]; DAPT 1 uM, 5 uM and 10 uM, serum-free differentiation medium of Table 3 (lactate 10 mM), FIG. 3) | number of cells that fuse into myotubes ([2]; DAPT added during myogenic differentiation) |
| --- | --- | --- | --- |
| C[C@H](O)C(=O)[O-].[Na+] [lactate, Sodium L-lactate] | induction of serum-free myogenic differentiation could be achieved | – | – |
| C[C@H](NC(=O)Cc1cc(F)cc(F)c1)C(=O)N[C@H](C(=O)OC(C)(C)C)c1ccccc1 [DAPT] | – | improved myogenic differentiation | increases the number of cells that fuse into myotubes |
